Data: PMC5064435, “Inhibition of endoplasmic reticulum glucosidases is required for in vitro and in vivo dengue antiviral activity by the iminosugar UV-4” (Antiviral Research, 2016)
Where a name gives a salt, the structure may show the parent alone.

How the values were obtained:
Assay type in all cases: biochemical
Conditions in all cases: read-out: IC50 ^a / UV-4B
[1] = biological target: T1, ceramide glucosyltransferase (HL60 glucosyltransferase) (Homo sapiens, UniProt Q16739); assay: enzyme inhibition assay, enzyme isolated from HL60 cells
T1 construct: gene UGCG; native enzyme isolated from human promyelocytic HL60 cells
T1 sequence (Q16739 1-394): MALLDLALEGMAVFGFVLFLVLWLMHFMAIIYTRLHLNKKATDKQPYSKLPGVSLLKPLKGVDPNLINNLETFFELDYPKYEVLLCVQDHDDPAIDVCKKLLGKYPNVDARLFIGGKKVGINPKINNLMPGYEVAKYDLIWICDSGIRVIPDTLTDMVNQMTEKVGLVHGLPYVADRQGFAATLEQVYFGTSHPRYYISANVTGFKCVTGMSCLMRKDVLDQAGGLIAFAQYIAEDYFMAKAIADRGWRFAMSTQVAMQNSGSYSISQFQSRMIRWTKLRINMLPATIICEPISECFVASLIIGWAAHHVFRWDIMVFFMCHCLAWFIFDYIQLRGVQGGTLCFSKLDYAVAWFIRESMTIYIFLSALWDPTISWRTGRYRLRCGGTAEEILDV
Text: enzyme inhibition assay, enzyme isolated from HL60 cells on ceramide glucosyltransferase (HL60 glucosyltransferase)

[2] = biological target: T2, Rat intestinal isomaltase (Rattus norvegicus, UniProt P23739); assay: enzyme inhibition assay
T2 construct: gene Si; native rat intestinal enzyme; isomaltase (N-terminal) subunit of sucrase-isomaltase
T2 sequence (P23739 1-1013 limits assumed): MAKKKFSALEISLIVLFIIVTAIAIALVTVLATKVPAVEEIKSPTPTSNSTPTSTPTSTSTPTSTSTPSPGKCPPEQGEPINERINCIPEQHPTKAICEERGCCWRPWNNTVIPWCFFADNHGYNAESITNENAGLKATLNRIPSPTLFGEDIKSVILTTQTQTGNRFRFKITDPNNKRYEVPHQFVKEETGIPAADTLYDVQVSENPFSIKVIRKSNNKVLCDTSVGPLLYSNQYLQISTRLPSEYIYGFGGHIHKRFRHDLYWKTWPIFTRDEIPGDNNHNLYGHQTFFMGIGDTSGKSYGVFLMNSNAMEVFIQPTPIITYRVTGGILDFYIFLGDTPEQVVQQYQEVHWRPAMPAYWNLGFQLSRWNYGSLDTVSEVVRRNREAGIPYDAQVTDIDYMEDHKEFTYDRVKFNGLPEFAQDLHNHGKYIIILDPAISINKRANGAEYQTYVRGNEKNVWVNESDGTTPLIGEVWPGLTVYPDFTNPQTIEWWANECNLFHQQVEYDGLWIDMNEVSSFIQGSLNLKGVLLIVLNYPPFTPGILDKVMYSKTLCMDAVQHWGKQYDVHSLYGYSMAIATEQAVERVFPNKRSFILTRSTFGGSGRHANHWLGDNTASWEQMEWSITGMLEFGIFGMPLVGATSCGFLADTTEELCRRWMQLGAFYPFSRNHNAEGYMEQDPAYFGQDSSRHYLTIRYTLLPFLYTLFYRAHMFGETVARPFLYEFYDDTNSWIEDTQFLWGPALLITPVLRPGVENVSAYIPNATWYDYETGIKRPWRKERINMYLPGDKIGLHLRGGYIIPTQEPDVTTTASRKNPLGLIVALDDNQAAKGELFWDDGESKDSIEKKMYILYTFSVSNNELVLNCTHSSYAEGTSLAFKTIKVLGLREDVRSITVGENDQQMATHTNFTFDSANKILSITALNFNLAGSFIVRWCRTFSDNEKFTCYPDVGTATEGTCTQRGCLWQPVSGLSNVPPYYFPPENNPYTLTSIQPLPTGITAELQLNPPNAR
Text: enzyme inhibition assay on Rat intestinal isomaltase

[3] = biological target: T3, Rat intestinal sucrase (Rattus norvegicus, UniProt P23739); assay: enzyme inhibition assay
T3 construct: gene Si; native rat intestinal enzyme; sucrase (C-terminal) subunit of sucrase-isomaltase
T3 sequence (P23739 1014-1841 limits assumed): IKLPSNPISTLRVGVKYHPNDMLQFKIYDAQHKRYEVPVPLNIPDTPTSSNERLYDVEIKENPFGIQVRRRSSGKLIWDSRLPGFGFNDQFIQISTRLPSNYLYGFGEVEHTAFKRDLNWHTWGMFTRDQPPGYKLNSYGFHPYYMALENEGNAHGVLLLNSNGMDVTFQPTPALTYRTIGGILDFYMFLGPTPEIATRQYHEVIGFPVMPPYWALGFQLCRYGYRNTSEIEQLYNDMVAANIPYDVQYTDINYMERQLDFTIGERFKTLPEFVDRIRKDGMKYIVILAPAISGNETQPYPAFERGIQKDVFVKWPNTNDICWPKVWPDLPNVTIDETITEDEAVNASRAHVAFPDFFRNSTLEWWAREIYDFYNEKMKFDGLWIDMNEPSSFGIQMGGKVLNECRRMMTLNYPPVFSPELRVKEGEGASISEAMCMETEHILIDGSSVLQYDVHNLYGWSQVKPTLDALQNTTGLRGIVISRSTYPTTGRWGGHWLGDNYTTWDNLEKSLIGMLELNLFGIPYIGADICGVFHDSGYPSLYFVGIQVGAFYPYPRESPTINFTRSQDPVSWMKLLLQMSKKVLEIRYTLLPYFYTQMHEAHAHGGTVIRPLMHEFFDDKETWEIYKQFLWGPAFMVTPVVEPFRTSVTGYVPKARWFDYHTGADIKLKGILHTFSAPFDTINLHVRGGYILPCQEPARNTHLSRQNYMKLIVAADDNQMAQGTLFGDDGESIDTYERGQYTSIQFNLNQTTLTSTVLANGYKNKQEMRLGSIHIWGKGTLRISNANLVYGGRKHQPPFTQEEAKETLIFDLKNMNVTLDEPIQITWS
Text: enzyme inhibition assay on Rat intestinal sucrase

[4] = biological target: T4, Mouse ER α-glucosidase I (Mus musculus, UniProt Q80UM7); assay: enzyme inhibition assay, purified enzyme
T4 construct: gene Mogs
T4 sequence (Q80UM7 1-834): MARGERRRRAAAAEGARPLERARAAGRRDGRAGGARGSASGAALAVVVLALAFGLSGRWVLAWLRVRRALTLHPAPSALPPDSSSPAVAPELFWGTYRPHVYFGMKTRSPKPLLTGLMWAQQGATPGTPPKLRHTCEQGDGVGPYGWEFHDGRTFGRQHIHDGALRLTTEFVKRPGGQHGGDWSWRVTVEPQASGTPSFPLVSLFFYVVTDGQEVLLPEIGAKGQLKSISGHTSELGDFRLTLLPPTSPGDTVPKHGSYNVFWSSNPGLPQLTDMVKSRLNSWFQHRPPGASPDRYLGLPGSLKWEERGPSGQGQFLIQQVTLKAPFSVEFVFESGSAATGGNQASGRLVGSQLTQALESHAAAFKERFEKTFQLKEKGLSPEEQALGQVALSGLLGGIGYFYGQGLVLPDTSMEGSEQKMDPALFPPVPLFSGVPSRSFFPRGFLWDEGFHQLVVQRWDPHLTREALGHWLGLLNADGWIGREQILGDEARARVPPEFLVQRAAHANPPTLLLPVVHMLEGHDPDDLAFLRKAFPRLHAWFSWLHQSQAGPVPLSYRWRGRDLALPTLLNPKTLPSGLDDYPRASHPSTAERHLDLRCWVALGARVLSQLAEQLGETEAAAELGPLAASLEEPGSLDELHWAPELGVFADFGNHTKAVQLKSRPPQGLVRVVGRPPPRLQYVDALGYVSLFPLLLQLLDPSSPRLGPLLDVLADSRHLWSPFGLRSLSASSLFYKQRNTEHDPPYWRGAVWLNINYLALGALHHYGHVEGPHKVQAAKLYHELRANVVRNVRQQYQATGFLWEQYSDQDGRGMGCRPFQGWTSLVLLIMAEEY
Text: enzyme inhibition assay, purified enzyme on Mouse ER α-glucosidase I

[5] = biological target: T5, Mouse ER α-glucosidase II (Mus musculus, UniProt Q8BHN3); assay: enzyme inhibition assay, purified enzyme
T5 construct: gene Ganab; with Glucosidase 2 subunit beta
T5 sequence (Q8BHN3 33-944): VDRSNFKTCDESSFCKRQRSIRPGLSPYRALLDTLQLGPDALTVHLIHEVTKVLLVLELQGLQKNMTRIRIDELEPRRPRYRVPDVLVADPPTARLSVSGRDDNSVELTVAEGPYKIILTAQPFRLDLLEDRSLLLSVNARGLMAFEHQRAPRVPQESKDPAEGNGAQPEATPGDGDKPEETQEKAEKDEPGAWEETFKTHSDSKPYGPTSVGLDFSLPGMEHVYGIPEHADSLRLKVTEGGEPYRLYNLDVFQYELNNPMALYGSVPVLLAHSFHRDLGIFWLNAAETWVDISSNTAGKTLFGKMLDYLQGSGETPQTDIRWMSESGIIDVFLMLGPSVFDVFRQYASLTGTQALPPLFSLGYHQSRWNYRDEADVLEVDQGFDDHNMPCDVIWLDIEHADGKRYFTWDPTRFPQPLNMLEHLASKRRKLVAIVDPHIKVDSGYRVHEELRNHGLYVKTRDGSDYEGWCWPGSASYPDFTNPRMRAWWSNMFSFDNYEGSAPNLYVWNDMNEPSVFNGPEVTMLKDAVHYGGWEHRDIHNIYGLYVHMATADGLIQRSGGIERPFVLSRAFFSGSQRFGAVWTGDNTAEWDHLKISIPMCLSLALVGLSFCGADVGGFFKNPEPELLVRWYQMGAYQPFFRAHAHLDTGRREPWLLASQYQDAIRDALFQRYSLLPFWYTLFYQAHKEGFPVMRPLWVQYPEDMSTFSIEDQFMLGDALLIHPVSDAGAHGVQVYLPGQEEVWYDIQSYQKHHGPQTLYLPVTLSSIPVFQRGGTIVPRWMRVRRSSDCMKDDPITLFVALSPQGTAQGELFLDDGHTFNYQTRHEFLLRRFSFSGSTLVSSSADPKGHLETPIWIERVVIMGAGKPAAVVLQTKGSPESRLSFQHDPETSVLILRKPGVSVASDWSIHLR
T5 sequence (O08795 15-521 partner): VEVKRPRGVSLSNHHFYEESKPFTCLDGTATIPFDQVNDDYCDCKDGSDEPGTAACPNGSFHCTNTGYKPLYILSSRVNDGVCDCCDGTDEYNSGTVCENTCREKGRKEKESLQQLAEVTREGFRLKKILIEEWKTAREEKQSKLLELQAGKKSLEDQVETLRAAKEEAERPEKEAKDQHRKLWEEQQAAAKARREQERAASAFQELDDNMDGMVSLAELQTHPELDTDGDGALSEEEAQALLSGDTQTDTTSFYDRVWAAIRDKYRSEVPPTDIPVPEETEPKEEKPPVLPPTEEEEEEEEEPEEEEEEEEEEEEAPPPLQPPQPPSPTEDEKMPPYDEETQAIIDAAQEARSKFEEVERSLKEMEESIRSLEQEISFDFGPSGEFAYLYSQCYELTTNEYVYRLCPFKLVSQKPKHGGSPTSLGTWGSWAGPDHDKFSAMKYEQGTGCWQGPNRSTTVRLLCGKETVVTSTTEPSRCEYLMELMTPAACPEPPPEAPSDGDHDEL
Text: enzyme inhibition assay, purified enzyme on Mouse ER α-glucosidase II

IC50 [1]: 390 nM
IC50 [2]: 1400 nM
IC50 [3]: 500 nM
IC50 [4]: 160 nM
IC50 [5]: 1800 nM
Compound: COCCCCCCCCCN1C[C@H](O)[C@@H](O)[C@H](O)[C@H]1CO [UV-4B, N-(9′-methoxynonyl)-1-deoxynojirimycin hydrochloride]
